According to publication PMC7707621, “Oxidized Juncuenin B Analogues with Increased Antiproliferative Activity on Human Adherent Cell Lines: Semisynthesis and Biological Evaluation” (Journal of Natural Products, 2020):

Experiments:
[1] = system: NIH/3T3 mouse embryonic fibroblast cells; test: MTT assay for tumor selectivity on NIH/3T3; type: cell-based; details: Mus musculus, NIH3T3; for IC50: MTT, 0.1–30 μM, 72 h, mean ± SEM, read-out: calculated IC50 values, NIH/3T3; for inhibition at 10 µM / inhibition at 30 µM: read-out: Growth inhibition (% ± SEM), NIH
Experimental: (§1) The antiproliferative assays of the products were carried out by a standard MTT method on human breast (MCF-7, T47D), cervical (HeLa, SiHa, C33A), and ovarian (A2780) cancer cells, and NIH/3T3 mouse embryonic fibroblast cell lines. In the first step, the diastereomeric and racemic mixtures 1–11 and the starting compound, juncuenin B, were tested to obtain information about their antiproliferative activity.
(§2) The antiproliferative activity and tumor selectivity of the compounds were measured by standard MTT assays. Tumor cell lines MCF-7, T47D, HeLa, A2780, and noncancerous NIH/3T3 were provided by European Collection of Authenticated Cell Cultures (ECACC, Salisbury, UK); cell lines SiHa and C33A by LGC Standards GmbH (Wesel, Germany). All chemicals and materials used for the antiproliferative assays were purchased from Sigma Aldrich Ltd. (Budapest, Hungary).
(§3) Growth-inhibition properties of racemates and pure enantiomer compounds were determined by standard MTT assays on six human malignant gynecological cell lines (MCF-7, T47D, HeLa, SiHa, C33A, A2780). To investigate tumor selectivity, the MTT assay was repeated on mouse embryonic fibroblast cells (NIH/3T3) under the same conditions. All cell lines were maintained in minimal essential medium (MEM) supplemented with 10% fetal bovine serum, 1% nonessential amino acids, and 1% penicillin–streptomycin–amphotericin B mixture, and were stored in humidified air containing 5% CO2 at 37 °C. All cell types were seeded into 96–well plates at a density of 5000 with the exception of C33a, which was seeded at a density of 10 000 and treated by increasing concentrations (0.1–30 μM) of the compounds for 72 h under cell culturing conditions. After the incubation, 5 mg/mL MTT [3-(4,5-dimethylthiazol-2-yl)-2,5-diphenyltetrazolium bromide] solution was added to samples for 4 h and precipitated blue formazan crystals were dissolved in DMSO. Absorbance values of the samples were measured at 545 nm using a microplate reader (Stat Fax-2100, Awareness Technologies Inc., Palm City, FL, USA) and untreated cells were used as control. Normalized sigmoidal dose–response curves were fitted to the determined data and the IC50 values were calculated by GraphPad Prism 5.01 (GraphPad Software, San Diego, CA, USA). Cisplatin (Ebewe Pharma GmbH, Unterach, Austria) was used as a reference agent in the same concentration range.

[2] = system: MCF-7 cells; test: MTT antiproliferative assay on MCF-7; type: cell-based, human; details: Homo sapiens; for inhibition at 10 µM: MCF7, 10 μM; for inhibition at 10 µM / inhibition at 30 µM: read-out: Growth inhibition (% ± SEM), MCF-7; for inhibition at 30 µM: MCF7, 30 μM; for IC50: MCF7, MTT, 0.1–30 μM, 72 h, mean ± SEM, read-out: calculated IC50 values, MCF-7
Experimental: as §1, §2, §3

[3] = system: SiHa cells; test: MTT antiproliferative assay on SiHa; type: cell-based, human; details: Homo sapiens, SiHa; for inhibition at 10 µM / inhibition at 30 µM: read-out: Growth inhibition (% ± SEM), SiHa; for IC50: MTT, 0.1–30 μM, 72 h, mean ± SEM, read-out: calculated IC50 values, SiHa
Experimental: as §1, §2, §3

[4] = system: C33A cells; test: MTT antiproliferative assay on C33A; type: cell-based, human; details: Homo sapiens, C-33-A; for inhibition at 10 µM / inhibition at 30 µM: read-out: Growth inhibition (% ± SEM), C33a; for IC50: MTT, 0.1–30 μM, 72 h, mean ± SEM, read-out: calculated IC50 values, C33A
Experimental: as §1, §2, §3

[5] = system: HeLa cells; test: MTT antiproliferative assay on HeLa; type: cell-based, human; details: Homo sapiens, HeLa; for inhibition at 10 µM / inhibition at 30 µM: read-out: Growth inhibition (% ± SEM), HeLa; for IC50: MTT, 0.1–30 μM, 72 h, mean ± SEM, read-out: calculated IC50 values, HeLa
Experimental: as §1, §2, §3

[6] = system: A2780 cells; test: MTT antiproliferative assay on A2780; type: cell-based, human; details: Homo sapiens; for inhibition at 10 µM: A2780, 10 μM; for inhibition at 10 µM / inhibition at 30 µM: read-out: Growth inhibition (% ± SEM), A2780; for inhibition at 30 µM: A2780, 30 μM; for IC50: A2780, MTT, 0.1–30 μM, 72 h, mean ± SEM, read-out: calculated IC50 values, A2780
Experimental: as §1, §2, §3

[7] = system: T47D cells; test: MTT antiproliferative assay on T47D; type: cell-based, human; details: Homo sapiens, T47D; for inhibition at 10 µM / inhibition at 30 µM: read-out: Growth inhibition (% ± SEM), T47d; for IC50: MTT, 0.1–30 μM, 72 h, mean ± SEM, read-out: calculated IC50 values, T47D
Experimental: as §1, §2, §3

| Compound | IC50 [2] | IC50 [5] | IC50 [7] | IC50 [6] | IC50 [1] | inhibition at 10 µM [2] | inhibition at 30 µM [2] | inhibition at 10 µM [3] | inhibition at 30 µM [3] | IC50 [3] | inhibition at 10 µM [4] | inhibition at 30 µM [4] | inhibition at 10 µM [5] | inhibition at 30 µM [5] | inhibition at 10 µM [6] | inhibition at 30 µM [6] | inhibition at 10 µM [7] | inhibition at 30 µM [7] | inhibition at 10 µM [1] | inhibition at 30 µM [1] | also measured |
| --- | --- | --- | --- | --- | --- | --- | --- | --- | --- | --- | --- | --- | --- | --- | --- | --- | --- | --- | --- | --- | --- |
| C=CC1=C(C)C(=O)C=C2C3=C(CCC21OC)C(C)(OC)C(=O)C=C3 (stereo not shown) [1a–1d, 2,6-dioxo-1,8a-dimethoxy-1,7-dimethyl-8-vinyl-9,10-dihydrophenanthrenes] | 11.6 µM |  |  |  | 17.7 ± 0.7 µM | 28.7 ± 1.81% | 67.1 ± 1.9% | 18.1 ± 3.53% | 77.9 ± 0.78% | 20 µM | 74.3 ± 0.8% | 94.97 ± 0.12% | 12.7 ± 1.94% | 86.7 ± 1.22% | 67.1 ± 1.37% | 94.93 ± 0.94% | 14.6 ± 4.44% | 76 ± 2.1% |  |  |  |
| C=CC1=C(C)C(=O)C=C2C3=C(CC[C@@]21OC)[C@](C)(OC)C(=O)C=C3 [Compound 1c, 2,6-dioxo-1,8a-dimethoxy-1,7-dimethyl-8-vinyl-9,10-dihydrophenanthrenes] | > 30 µM | > 30 µM | 12.5 ± 0.9 µM |  |  | 10.2 ± 4.97% | 28.1 ± 1.14% | < 10% | 57.5 ± 2.33% | 28.1 ± 0.1 µM | 85.7 ± 1.16% | 96.31 ± 0.17% | 28.3 ± 1.66% | 36.1 ± 0.87% | 68.5 ± 0.75% | 98.88 ± 0.1% | 36.4 ± 2.76% | 84.5 ± 1.63% | < 10% | 69.4 ± 1.87% |  |
| C=CC1=C(C)C(=O)C=C2C3=C(CC[C@]21OC)[C@](C)(OC)C(=O)C=C3 [Compound 1d, 2,6-dioxo-1,8a-dimethoxy-1,7-dimethyl-8-vinyl-9,10-dihydrophenanthrenes] | > 30 µM | > 30 µM | > 30 µM | 11 ± 0.4 µM | > 30 µM | < 10% | 34.6 ± 1.38% | < 10% | 11.6 ± 2.33% | > 30 µM | 22.1 ± 1.44% | 89.4 ± 1% | 11.4 ± 2.71% | 25.1 ± 3.84% | 45.1 ± 2.08% | 92.39 ± 0.36% | < 10% | 41.8 ± 1.15% | < 10% | 30.7 ± 2.04% | IC50 [4]: 13 ± 0.2 µM |

Second part, led by results:

| IC50 [2] | IC50 [5] | IC50 [7] | IC50 [6] | Compound | IC50 [1] | inhibition at 10 µM [2] | inhibition at 30 µM [2] | inhibition at 10 µM [3] | inhibition at 30 µM [3] | IC50 [3] | inhibition at 10 µM [4] | inhibition at 30 µM [4] | inhibition at 10 µM [5] | inhibition at 30 µM [5] | inhibition at 10 µM [6] | inhibition at 30 µM [6] | inhibition at 10 µM [7] | inhibition at 30 µM [7] | inhibition at 10 µM [1] | inhibition at 30 µM [1] | also measured |
| --- | --- | --- | --- | --- | --- | --- | --- | --- | --- | --- | --- | --- | --- | --- | --- | --- | --- | --- | --- | --- | --- |
| > 30 µM | > 30 µM | > 30 µM | 13.3 ± 1.5 µM | C=CC1=C(C)C(=O)C=C2C3=C(CC[C@@]21OC)[C@@](C)(OC)C(=O)C=C3 [Compound 1a, 2,6-dioxo-1,8a-dimethoxy-1,7-dimethyl-8-vinyl-9,10-dihydrophenanthrenes] | > 30 µM | < 10% | 33.1 ± 1.15% | < 10% | < 10% | > 30 µM | 19.5 ± 2.08% | 87.97 ± 0.34% | < 10% | 47.8 ± 3.28% | 25.1 ± 1.6% | 87.7 ± 1.1% | 14.1 ± 1.87% | 32.5 ± 1.96% | < 10% | 32.1 ± 1.88% |  |
| > 30 µM | > 30 µM | > 30 µM | 9 ± 1 µM | C=CC1=C(C)C(=O)C=C2C3=C(CC[C@]21OC)[C@@](C)(OC)C(=O)C=C3 [Compound 1b, 2,6-dioxo-1,8a-dimethoxy-1,7-dimethyl-8-vinyl-9,10-dihydrophenanthrenes] |  | 14.2 ± 3.54% | 31.9 ± 1.28% | < 10% | 27.7 ± 1.96% | > 30 µM | 46 ± 2.01% | 95.12 ± 0.44% | 16.3 ± 2.68% | 42.6 ± 2.07% | 52.2 ± 1.02% | 96.61 ± 0.23% | 13.6 ± 1.33% | 43.8 ± 1.31% | < 10% | 41.9 ± 1.35% | IC50 [4]: 10.2 ± 1.7 µM |
